# Assay results taken from US20210346459A1, “Application of Dalargin for the prevention of VRIs and prevention of the development of complications during VRIs” (priority 2020, published 2021).
# Like-named read-outs stand apart in the source and are kept apart here. Marks after values point to notes of the source that are not given here. Square brackets hold non-standard residues; d marks the D form. Peptide text beside a SMILES is read from it.
# Assays:
# [1] = system: influenza virus A/Puerto Rico/8/34 (H1N1); format: in vivo, Balb/c mice
# [2] = Effect of low pH acetate buffer on antiviral and immunotropic activity; details: low pH acetate-based buffer solution; nose, nasopharynx, oropharynx, oral cavity or sublingual
# Description: The preferred type of buffer salts is acetate buffer, which contains sodium acetate and acetic acid, with a preferred pH value of 4.0-5.5. Citrate buffer can also be used. […] Additionally, a physiologically active buffer on the basis of sodium hydrogen phosphate dihydrate and sodium dihydrogen phosphate dihydrate can be used; however, this buffer is not sufficiently efficient in the pH range from 4.0 to 5.5 in terms of its buffer capacity.
# influenza virus A = format: in vivo, human
# influenza = format: in vivo, human; details: Example 9, 4 relatives; 0.02% solution inhaled once a day, 1 mg/day; 7 days
# [3] = Clinical testing of inhalation: cough and shortness of breath; format: in vivo, human
# Description: Mu and delta receptors are found in the cough centre of the medulla, and systemic application of […] of these receptors inhibits the cough reflex. This usually also affects other organs and zones of the brain that contain opioid receptors. Additionally, since receptors of this group are found in peripheral neural pathways, Dalargin can also affect the conduction of signals along these neural pathways. Dalargin inhalation mostly produces local effects of short-lived metabolites of the peptide on peripheral opioid receptors, which manifests itself in reduced response of receptor cells to stimulation and reduced intensity of the signal transmitted to the cough centre. […] A certain local analgesic effect also improves the overall condition of the patient. […] This, in turn, alleviates the irritation of the respiratory tract, reduces the loss of the inhaled product due to coughing and improves the patients' quality of life.
# Shortness of breath is one of the most common symptoms of VRIs. The patient is often unable to perform the most basic actions without experiencing shortness of breath, panting, and a sensation of lacking air. Descriptions of various methods of the treatment of shortness of breath report positive effects of systemic administration of certain opioid receptor agonists. […] Systemically administered opioids are also recommended for treating shortness of breath in such patients, but side effects may limit their use. Despite the positive effect, uses of such therapies are severely limited due to typical side effects and restrictions on the sales of opioid drugs. Inhalation of Dalargin is additionally associated with improved quality of respiration. […] Unlike classical opioids, these metabolites are short-lived and only act locally, in the zone where the inhaled aerosol is deposited in the lungs, predominantly in the larynx, bronchi and trachea.
# [4] = system: influenza virus A/Puerto Rico/8/34 (H1N1); details: for Virus titer PR8 (influenza virus): virus control 5.5
# human adenovirus 5 = details: for Virus titer Ad5 (adenovirus): virus control 4.5
# in vitro [5] = details: dog
# in vitro [6] = details: African green monkey
# [7] = application to skin or mucosae at any concentration; cited from earlier work
# [8] = administered by injection or infusion; cited from earlier work
# [9] = Group 4: inhalation of 1% solution 14 min twice a day, 0.36 mg/kg
# [10] = Group 4: inhalation of 1% solution 14 min twice a day, 0.36 mg/kg, 30 animals
# [11] = Group 5: inhalation of 3% solution 45 min twice a day, 1.74 mg/kg
# [12] = Group 5: inhalation of 3% solution 45 min twice a day, 1.74 mg/kg, 30 animals
# [13] = Group 6: inhalation of 5% solution 55 min twice a day, 3.54 mg/kg
# [14] = Group 6: inhalation of 5% solution 55 min twice a day, 3.54 mg/kg, 30 animals
# [15] = Group 8: inhalation of 3% solution 45 min twice a day, prophylactic only
# [16] = Group 8: inhalation of 3% solution 45 min twice a day, prophylactic only (days 3, 2, 1 and 1 hour before challenge), 30 animals
# [17] = Group 9: nasally + pharyngeal spray 0.5 mg/kg, prophylactic only
# [18] = Group 9: nasally + pharyngeal spray 0.5 mg/kg, prophylactic only, 30 animals
# [19] = Example 10, patient V, A/California/07/2009 (H1N1), 0.1% solution inhaled twice a day, 4 mg/day, with Oseltamivir
smiles,measurement,setting,value
"CC(C)C[C@H](NC(=O)[C@H](Cc1ccccc1)NC(=O)CNC(=O)[C@@H](C)NC(=O)[C@@H](N)Cc1ccc(O)cc1)C(=O)N[C@@H](CCCNC(=N)N)C(=O)O [Dalargin, tyrosyl-D-alanyl-glycyl-phenylalanyl-leucyl-arginine diacetate] (H-Y[dA]GFLR-OH)",Protective effect on lung tissue and lung function compared with comparators,[1]; Dalargin inhalation,superior to that of Tamiflu and Kagocel
same,"Mortality, %",[1]; [9],10.00%
same,"Protective index, %",[1]; [9],88.46%
same,Mortality by day 9,[1]; [10],2
same,Mortality by day 11,[1]; [10],1
same,Residue,[1]; [10],27*
same,"Mortality, %",[1]; [11],6.67%
same,"Protective index, %",[1]; [11],92.30%
same,Mortality by day 8,[1]; [12],1
same,Mortality by day 10,[1]; [12],1
same,Residue,[1]; [12],28*
same,"Mortality, %",[1]; [13],6.67%
same,"Protective index, %",[1]; [13],92.30%
same,Mortality by day 7,[1]; [14],1
same,Mortality by day 10,[1]; [14],1
same,Residue,[1]; [14],28*
same,"Mortality, %",[1]; [15],40.00%
same,"Protective index, %",[1]; [15],53.85%
same,Mortality by day 5,[1]; [16],1
same,Mortality by day 6,[1]; [16],3
same,Mortality by day 7,[1]; [16],2
same,Mortality by day 8,[1]; [16],3
same,Mortality by day 9,[1]; [16],3
same,Residue,"[1]; Group 8: inhalation of 3% solution 45 min twice a day, prophylactic only, 30 animals",18
same,"Mortality, %",[1]; [17],50.00%
same,"Protective index, %",[1]; [17],42.31%
same,Mortality by day 6,[1]; [18],4
same,Mortality by day 7,[1]; [18],4
same,Mortality by day 8,[1]; [18],4
same,Mortality by day 9,[1]; [18],2
same,Mortality by day 10,[1]; [18],1
same,Residue,[1]; [18],15
same,"Histological features of lung tissue, day 3 after challenge","[1]; oedema, neutrophilic infiltration, collapsed alveolae relative to control",far less pronounced
same,Efficacy attributed exclusively to the prophylactic protective effect,"[1]; preventive administration, without the therapeutic component",50%
same,"Histological features of lung tissue, day 12",[1]; surviving animals,One half of the animals receiving Dalargin exhibited no signs of pathology
same,Fold higher specific antiviral and immunotropic activity,[2],2-4 times
same,"Complete resolution of symptoms, day after start of therapy","influenza virus A; Example 8, patient K, influenza pneumonia A/Aichi/2/68 (H3N2), 0.02% solution inhaled twice a day, 1 mg/day, with Oseltamivir 75 mg twice a day",7 days
same,Duration of fever,influenza virus A; [19],3 days
same,Duration of intoxication symptoms,influenza virus A; [19],2 days
same,Duration of the disease as a whole (complete resolution of symptoms),influenza virus A; [19],5 days
same,Signs or symptoms of influenza in household contacts,influenza,"None of the relatives of patient V who were in contact with them exhibited catarrhal signs, hyperthermia or other signs or symptoms of influenza"
same,Duration of reduced coughing severity,[3],2 to 4 h
same,Cough reported by patients,[3]; clinical testing,alleviation or elimination of cough
same,Shortness of breath,[3]; investigational clinical use,significantly reduced shortness of breath
same,Virus titer PR8 (influenza virus),[4]; 0.4 μg/mL,5.5 lg TCID50/0.1 mL
same,Virus titer PR8 (influenza virus),[4]; 1.1 μg/mL,5.0 lg TCID50/0.1 mL
same,Virus titer PR8 (influenza virus),[4]; 3.3 μg/mL,5.0 lg TCID50/0.1 mL
same,Virus titer PR8 (influenza virus),[4]; 10 μg/mL,4.5 lg TCID50/0.1 mL
same,Virus titer PR8 (influenza virus),[4]; 30 μg/mL,4.0 lg TCID50/0.1 mL
same,SI,"[4]; CC50/IC50, PR8 (influenza virus)",>37.5
same,IC50,"[4]; PR8 (influenza virus), MDCK",0.8 µg/mL
same,Antiviral properties (in words),"[4]; influenza virus, MDCK",dose-dependent reduction of the infectious activity
same,IC50,human adenovirus 5,2.5 µg/mL
same,Virus titer Ad5 (adenovirus),human adenovirus 5; 0.4 μg/mL,4.5 lg TCID50/0.1 mL
same,Virus titer Ad5 (adenovirus),human adenovirus 5; 1.1 μg/mL,4.5 lg TCID50/0.1 mL
same,Virus titer Ad5 (adenovirus),human adenovirus 5; 3.3 μg/mL,4.0 lg TCID50/0.1 mL
same,Virus titer Ad5 (adenovirus),human adenovirus 5; 10 μg/mL,4.0 lg TCID50/0.1 mL
same,Virus titer Ad5 (adenovirus),human adenovirus 5; 30 μg/mL,3.5 lg TCID50/0.1 mL
same,SI,"human adenovirus 5; CC50/IC50, Ad5 (adenovirus)",12
same,Antiviral properties (in words),"human adenovirus 5; adenovirus, Vero",dose-dependent reduction of the infectious activity
same,CC50,in vitro [5],≥ 30 µg/mL
same,CC50,in vitro [6],≥ 30 µg/mL
same,Local irritation,[7],does not produce local irritation
same,Mean elimination half-life,[8],12 min
